Results: patent US20230365488A1, “TRUXILLIC ACID MONOESTER-DERIVATIVES AS SELECTIVE FABP5 INHIBITORS AND PHARMACEUTICAL COMPOSITIONS AND USES THEREOF” (The Research Foundation for The State University of New York, priority 2020, published 2023)

Legend:
PC3 cells = assay: MTT cytotoxicity and taxane combination (CI) analysis, PC3 (Example 6); type: cell-based, human; settings: for CI value / Fa value / Relationship: PC3, 1y 7.5 μM or 1w 1.0 μM
DU-145 cells = assay: MTT cytotoxicity and taxane combination (CI) analysis, DU-145 (Example 6); type: cell-based, human; settings: for CI value / Fa value / Relationship: 1y 7.5 μM or 1w 1.0 μM
22Rv1 cells = assay: MTT cytotoxicity and taxane combination (CI) analysis, 22Rv1 (Example 6); type: cell-based, human; settings: for CI value / Fa value / Relationship: 1y 7.5 μM or 1w 1.0 μM
[1] = system: PC3 cells implanted subcutaneously; assay: Subcutaneous PC3 tumor growth in nude mice; type: in vivo, male BALB/c nude mice
[2] = MTT cytotoxicity, WI-38 (Example 6); type: cell-based; settings: human, WI-38 cells (normal lung cell line), 72-hour incubation
FABP3 = FABP3 (Homo sapiens (Human), UniProt P05413); assay: FABP3 fluorescent probe displacement binding assay; settings: average ± S.E. of at least three independent experiments
FABP7 = FABP7 (Homo sapiens (Human), UniProt O15540); assay: FABP7 fluorescent probe displacement binding assay; settings: average ± S.E. of at least three independent experiments
[3] = MTT cytotoxicity, RWPE-1 (Example 6); type: cell-based; settings: human, RWPE-1 cells (normal prostate cell line), 72-hour incubation
[4] = combination with cabazitaxel 0.03 nM
[5] = combination with cabazitaxel 0.3 nM
[6] = combination with cabazitaxel 3.0 nM
[7] = combination with docetaxel 0.03 nM
[8] = combination with docetaxel 0.3 nM
[9] = combination with docetaxel 3.0 nM
[10] = DU-145, combination with cabazitaxel 0.03 nM
[11] = DU-145, combination with cabazitaxel 0.3 nM
[12] = DU-145, combination with cabazitaxel 3.0 nM
[13] = DU-145, combination with docetaxel 0.03 nM
[14] = DU-145, combination with docetaxel 0.3 nM
[15] = DU-145, combination with docetaxel 3.0 nM
[16] = 22Rv1, combination with cabazitaxel 0.03 nM
[17] = 22Rv1, combination with cabazitaxel 0.3 nM
[18] = 22Rv1, combination with cabazitaxel 3.0 nM
[19] = 22Rv1, combination with docetaxel 0.03 nM
[20] = 22Rv1, combination with docetaxel 0.3 nM
[21] = 22Rv1, combination with docetaxel 3.0 nM

Sequence of FABP7 (O15540 whole entry): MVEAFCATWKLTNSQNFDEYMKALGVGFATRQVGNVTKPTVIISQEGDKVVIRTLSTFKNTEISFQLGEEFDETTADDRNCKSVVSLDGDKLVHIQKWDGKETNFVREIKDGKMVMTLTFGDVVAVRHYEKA
Sequence of FABP3 (P05413 whole entry): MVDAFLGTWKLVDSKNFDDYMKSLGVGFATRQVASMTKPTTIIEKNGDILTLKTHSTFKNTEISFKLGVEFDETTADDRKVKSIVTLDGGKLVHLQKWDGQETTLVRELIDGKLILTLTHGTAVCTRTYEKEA

Ki (FABP3): 25.3 ± 4.57 µM | Ki (FABP7): 4.26 ± 0.41 µM
SMILES: COc1ccccc1[C@H]1[C@H](C(=O)O)[C@H](c2ccccc2OC)[C@H]1C(=O)OCC1c2ccccc2-c2ccccc21 (racemic) [Compound 1w]
IC50 (PC3 cells; Homo sapiens, PC-3, MTT, 72-hour incubation, single agent): 6.3 µM | CI value (PC3 cells; [4]): 0.899 | Fa value (PC3 cells; [4]): 0.379 | Relationship (PC3 cells; [4]): synergistic | CI value (PC3 cells; [5]): 0.942 | Fa value (PC3 cells; [5]): 0.420 | Relationship (PC3 cells; [5]): synergistic | CI value (PC3 cells; [6]): 0.373 | Fa value (PC3 cells; [6]): 0.853 | Relationship (PC3 cells; [6]): synergistic | CI value (PC3 cells; [7]): 0.710 | Fa value (PC3 cells; [7]): 0.402 | Relationship (PC3 cells; [7]): synergistic | CI value (PC3 cells; [8]): 0.889 | Fa value (PC3 cells; [8]): 0.432 | Relationship (PC3 cells; [8]): synergistic | CI value (PC3 cells; [9]): 0.394 | Fa value (PC3 cells; [9]): 0.700 | Relationship (PC3 cells; [9]): synergistic | cytotoxicity of combination with docetaxel or cabazitaxel versus each drug administered independently (PC3 cells; PC3 cells): greater cytotoxicity | CI value (DU-145 cells; [10]): 0.449 | Fa value (DU-145 cells; [10]): 0.464 | Relationship (DU-145 cells; [10]): synergistic | CI value (DU-145 cells; [11]): 0.300 | Fa value (DU-145 cells; [11]): 0.716 | Relationship (DU-145 cells; [11]): synergistic | CI value (DU-145 cells; [12]): 0.194 | Fa value (DU-145 cells; [12]): 0.882 | Relationship (DU-145 cells; [12]): synergistic | CI value (DU-145 cells; [13]): 4.473 | Fa value (DU-145 cells; [13]): 0.516 | CI value (DU-145 cells; [14]): 2.697 | Fa value (DU-145 cells; [14]): 0.676 | CI value (DU-145 cells; [15]): 0.445 | Fa value (DU-145 cells; [15]): 0.935 | Relationship (DU-145 cells; [15]): synergistic | cytotoxicity of combination with docetaxel or cabazitaxel versus each drug administered independently (DU-145 cells; DU-145 cells): greater cytotoxicity | IC50 (DU-145 cells; Homo sapiens, DU-145, MTT, 72-hour incubation, single agent): 3.3 µM | CI value (22Rv1 cells; [16]): 0.731 | Fa value (22Rv1 cells; [16]): 0.577 | Relationship (22Rv1 cells; [16]): synergistic | CI value (22Rv1 cells; [17]): 0.549 | Fa value (22Rv1 cells; [17]): 0.728 | Relationship (22Rv1 cells; [17]): synergistic | CI value (22Rv1 cells; [18]): 0.659 | Fa value (22Rv1 cells; [18]): 0.823 | Relationship (22Rv1 cells; [18]): synergistic | CI value (22Rv1 cells; [19]): 1.673 | Fa value (22Rv1 cells; [19]): 0.457 | CI value (22Rv1 cells; [20]): 0.373 | Fa value (22Rv1 cells; [20]): 0.744 | Relationship (22Rv1 cells; [20]): synergistic | CI value (22Rv1 cells; [21]): 0.267 | Fa value (22Rv1 cells; [21]): 0.905 | Relationship (22Rv1 cells; [21]): synergistic | cytotoxicity of combination with docetaxel or cabazitaxel versus each drug administered independently (22Rv1 cells; 22Rv1 cells): greater cytotoxicity | IC50 (22Rv1 cells; Homo sapiens, 22Rv1, MTT, 72-hour incubation, single agent): 3.1 µM | tumor growth, coadministration with docetaxel ([1]; 20 mg/kg ip daily in combination with docetaxel 5 mg/kg weekly, comparable in magnitude to the 10 mg/kg docetaxel dose): greater inhibition of tumor growth than treatment with each compound alone | tumor growth ([1]; 20 mg/kg, ip, once daily, from day 15, versus vehicle): significantly reduced tumor growth | IC50 at 72 h [2]: 29.6 µM | IC50 at 72 h [3]: 20.6 µM
